Reference: ChEMBL document CHEMBL1138695, “Synthesis of stavudine amino acid ester prodrugs with broad-spectrum chemotherapeutic properties for the effective treatment of HIV/AIDS” (Bioorg Med Chem Lett, 2004)
In brackets after ≈: the same amount, converted by molar mass.

Experiments:
Vibrio cholerae [1] = assay: Antibacterial activity against Vibrio cholerae 0139; type: functional
Klebsiella pneumoniae [2] = assay: Antibacterial activity against Klebsiella ozaenae; type: functional; settings: subsp. ozaenae
Edwardsiella tarda = assay: Antibacterial activity against Edwardsiella tarda; type: functional
Priestia megaterium = assay: Antibacterial activity against Bacillus megatherium; type: functional
Shigella sonnei = assay: Antibacterial activity against Shigella sonnei; type: functional
Vibrio fluvialis = assay: Antibacterial activity against Vibrio fluvialis; type: functional
Pseudomonas aeruginosa = assay: Antibacterial activity against Pseudomonas aeruginosa; type: functional
Proteus mirabilis = assay: Antibacterial activity against Proteus mirabilis; type: functional
Salmonella enteritidis = assay: Antibacterial activity against Salmonella enteritidis; type: functional, Salmonella enterica subsp. enterica serovar Enteritidis; settings: Salmonella enterica
Salmonella paratyphi = assay: Antibacterial activity against Salmonella paratyphi A; type: functional, Salmonella enterica subsp. enterica serovar Paratyphi A; settings: Salmonella enterica
Klebsiella pneumoniae [3] = assay: Antibacterial activity against Klebsiella pneumoniae; type: functional
Vibrio cholerae [4] = assay: Antibacterial activity against Vibrio cholerae 01; type: functional
Proteus vulgaris = assay: Antibacterial activity against Proteus vulgaris; type: functional
Salmonella typhi = assay: Antibacterial activity against […] Salmonella typhi; type: functional, Salmonella enterica subsp. enterica serovar Typhi; settings: Salmonella enterica
Shigella boydii = assay: Antibacterial activity against Shigella boydii; type: functional
Staphylococcus aureus = assay: Antibacterial activity against Staphylococcus aureus; type: functional
Vibrio mimicus = assay: Antibacterial activity against Vibrio mimicus; type: functional
Escherichia coli = assay: Antibacterial activity against Escherichia coli NCTC 10418; type: functional
Plesiomonas shigelloides = assay: Antibacterial activity against Plesiomonas shigelloides; type: functional
Citrobacter freundii = assay: Antibacterial activity against Citrobacter ferundii; type: functional
Salmonella typhimurium = assay: Antibacterial activity against Salmonella Typhimurium; type: functional, Salmonella enterica subsp. enterica serovar Typhimurium; settings: Salmonella enterica
Enterobacter = assay: Antibacterial activity against Enterobacter; type: functional
Morganella morganii = assay: Antibacterial activity against Morganella morganii; type: functional
Vibrio parahaemolyticus = assay: Antibacterial activity against Vibrio parahaemolyticus; type: functional
CCRF-CEM [5] = assay: Effective concentration of compound achieving 50% protection in CEM cell lines against the cytopathic effect of HIV-1; type: functional, cell-based; settings: Homo sapiens
CCRF-CEM [6] = assay: Cytotoxic concentration of compound required to reduce the viability of mock infected CEM cells by 50%; type: functional; settings: Homo sapiens
[7] = In vitro hydrolysis in human plasma; type: ADME, cell-free
[8] = Selectivity index expressed as the ratio of CC50 to EC50; type: functional
[9] = test system: Mycobacterium tuberculosis; assay: Antimycobacterial activity against Mycobacterium tuberculosis strain H37Rv; type: functional; parameters: concentration or dose not given beside the values

| SMILES | MIC (Vibrio cholerae [1]) [µg/mL] | MIC (Klebsiella pneumoniae [2]) [µg/mL] | MIC (Edwardsiella tarda) [µg/mL] | MIC (Priestia megaterium) [µg/mL] | MIC (Shigella sonnei) [µg/mL] | MIC (Vibrio fluvialis) [µg/mL] | MIC (Pseudomonas aeruginosa) [µg/mL] | MIC (Proteus mirabilis) [µg/mL] | MIC (Salmonella enteritidis) [µg/mL] | MIC (Klebsiella pneumoniae [3]) [µg/mL] | MIC (Vibrio cholerae [4]) [µg/mL] | MIC (Proteus vulgaris) [µg/mL] | MIC (Shigella boydii) [µg/mL] | MIC (Staphylococcus aureus) [µg/mL] | MIC (Vibrio mimicus) [µg/mL] | MIC (Escherichia coli) [µg/mL] | MIC (Plesiomonas shigelloides) [µg/mL] | EC50 (CCRF-CEM [5]) [µM] | CC50 (CCRF-CEM [6]) [µM] | Selectivity index [8] | other results |
| --- | --- | --- | --- | --- | --- | --- | --- | --- | --- | --- | --- | --- | --- | --- | --- | --- | --- | --- | --- | --- | --- |
| O=C(O)c1cn(C2CC2)c2cc(N3CCNCC3)c(F)cc2c1=O [CIPROFLOXACIN] | 0.0095 (≈ 0.0287 µM) | 0.0381 (≈ 0.115 µM) | 0.0095 (≈ 0.0287 µM) | 0.0095 (≈ 0.0287 µM) | 0.0095 (≈ 0.0287 µM) | 0.0095 (≈ 0.0287 µM) | 0.0381 (≈ 0.115 µM) | 0.0095 (≈ 0.0287 µM) | 0.0095 (≈ 0.0287 µM) | 0.0095 (≈ 0.0287 µM) | 0.0095 (≈ 0.0287 µM) | 0.019 (≈ 0.0573 µM) | 0.0095 (≈ 0.0287 µM) | 0.0095 (≈ 0.0287 µM) | 0.0095 (≈ 0.0287 µM) | 0.019 (≈ 0.0573 µM) | 0.019 (≈ 0.0573 µM) |  |  |  | MIC (Salmonella paratyphi): 0.019 µg/mL (≈ 0.0573 µM); MIC (Salmonella typhi): 0.019 µg/mL (≈ 0.0573 µM); MIC (Citrobacter freundii): 0.0095 µg/mL (≈ 0.0287 µM); MIC (Salmonella typhimurium): 0.0095 µg/mL (≈ 0.0287 µM); MIC (Enterobacter): 0.019 µg/mL (≈ 0.0573 µM); MIC (Morganella morganii): 0.0095 µg/mL (≈ 0.0287 µM); MIC (Vibrio parahaemolyticus): 0.0095 µg/mL (≈ 0.0287 µM) |
| CCn1cc(C(=O)O)c(=O)c2cc(F)c(N3CCN(CC(=O)OCC4C=CC(n5cc(C)c(=O)[nH]c5=O)O4)CC3)cc21 (stereo unspecified) | 0.61 (≈ 1.05 µM) | 1.22 (≈ 2.09 µM) | 9.76 (≈ 16.7 µM) | 0.3 (≈ 0.514 µM) | 9.76 (≈ 16.7 µM) | 9.76 (≈ 16.7 µM) | 1.22 (≈ 2.09 µM) | 1.22 (≈ 2.09 µM) | 9.76 (≈ 16.7 µM) | 1.22 (≈ 2.09 µM) | 0.61 (≈ 1.05 µM) | 9.76 (≈ 16.7 µM) | 0.61 (≈ 1.05 µM) | 9.76 (≈ 16.7 µM) | 0.61 (≈ 1.05 µM) | 1.22 (≈ 2.09 µM) | 9.76 (≈ 16.7 µM) | 100 | 210 | 2.1 | half-life [7]: > 4 h; Inhibition [9]: 98%; MIC (Salmonella paratyphi): 1.22 µg/mL (≈ 2.09 µM); MIC (Citrobacter freundii): 2.44 µg/mL (≈ 4.18 µM); MIC (Salmonella typhimurium): 9.76 µg/mL (≈ 16.7 µM); MIC (Enterobacter): 0.3 µg/mL (≈ 0.514 µM); MIC (Morganella morganii): 9.76 µg/mL (≈ 16.7 µM); MIC (Vibrio parahaemolyticus): 1.22 µg/mL (≈ 2.09 µM) |
| CCn1cc(C(=O)O)c(=O)c2cc(F)c(N3CCNCC3)cc21 [NORFLOXACIN] | 0.0763 (≈ 0.239 µM) | 0.0381 (≈ 0.119 µM) | 0.0381 (≈ 0.119 µM) | 0.0763 (≈ 0.239 µM) | 0.0381 (≈ 0.119 µM) | 0.0763 (≈ 0.239 µM) | 0.0763 (≈ 0.239 µM) | 0.0763 (≈ 0.239 µM) | 0.0381 (≈ 0.119 µM) | 0.0381 (≈ 0.119 µM) | 0.0763 (≈ 0.239 µM) | 0.0381 (≈ 0.119 µM) | 0.0381 (≈ 0.119 µM) | 0.153 (≈ 0.478 µM) | 0.153 (≈ 0.478 µM) | 0.0381 (≈ 0.119 µM) | 0.0763 (≈ 0.239 µM) |  |  |  | MIC (Salmonella paratyphi): 0.0381 µg/mL (≈ 0.119 µM); MIC (Salmonella typhi): 0.0763 µg/mL (≈ 0.239 µM); MIC (Citrobacter freundii): 0.0381 µg/mL (≈ 0.119 µM); MIC (Salmonella typhimurium): 0.0763 µg/mL (≈ 0.239 µM); MIC (Enterobacter): 0.0763 µg/mL (≈ 0.239 µM); MIC (Morganella morganii): 0.0763 µg/mL (≈ 0.239 µM); MIC (Vibrio parahaemolyticus): 0.0763 µg/mL (≈ 0.239 µM) |
| Cc1cn(C2C=CC(COC(=O)CN(C)C)O2)c(=O)[nH]c1=O (stereo unspecified) |  |  |  |  |  |  |  |  |  |  |  |  |  |  |  |  |  | 0.343 | 456 | 1330 | half-life [7]: 0.5 h |
| Cc1cn([C@H]2C=C[C@@H](CO)O2)c(=O)[nH]c1=O [STAVUDINE] |  |  |  |  |  |  |  |  |  |  |  |  |  |  |  |  |  | 0.09 | > 100 | > 1110 | Inhibition [9]: 0% |
| Cc1cn(C2C=CC(COC(=O)CNC(=O)c3ccncn3)O2)c(=O)[nH]c1=O (stereo unspecified) | 1250 (≈ 3230 µM) | 1250 (≈ 3230 µM) | 1250 (≈ 3230 µM) | 39.1 (≈ 101 µM) | 312 (≈ 807 µM) | 1250 (≈ 3230 µM) | 1250 (≈ 3230 µM) | 1250 (≈ 3230 µM) | 1250 (≈ 3230 µM) | 1250 (≈ 3230 µM) | 1250 (≈ 3230 µM) | 1250 (≈ 3230 µM) | 312 (≈ 807 µM) | 1250 (≈ 3230 µM) | 78.1 (≈ 202 µM) | 1250 (≈ 3230 µM) | 312 (≈ 807 µM) | 0.52 | 567 | 1090 | half-life [7]: 1 h; Inhibition [9]: 0%; MIC (Citrobacter freundii): 1250 µg/mL (≈ 3230 µM); MIC (Salmonella typhimurium): 1250 µg/mL (≈ 3230 µM); MIC (Enterobacter): 39.1 µg/mL (≈ 101 µM); MIC (Morganella morganii): 312 µg/mL (≈ 807 µM); MIC (Vibrio parahaemolyticus): 1250 µg/mL (≈ 3230 µM) |
| Cc1cn(C2C=CC(COC(=O)CN3CCNCC3)O2)c(=O)[nH]c1=O (stereo unspecified) |  |  |  |  |  |  |  |  |  |  |  |  |  |  |  |  |  | < 0.0636 | > 1000 | > 15700 | half-life [7]: 0.333 h |
| Cc1cn(C2C=CC(COC(=O)CNNC(=O)c3ccncc3)O2)c(=O)[nH]c1=O (stereo unspecified) | 156 (≈ 389 µM) | 9.76 (≈ 24.3 µM) | 156 (≈ 389 µM) | 2.44 (≈ 6.08 µM) | 156 (≈ 389 µM) | 1250 (≈ 3110 µM) | 1250 (≈ 3110 µM) | 2.44 (≈ 6.08 µM) | 4.88 (≈ 12.2 µM) | 1250 (≈ 3110 µM) | 1250 (≈ 3110 µM) | 312 (≈ 779 µM) | 4.88 (≈ 12.2 µM) | 156 (≈ 389 µM) | 4.88 (≈ 12.2 µM) | 156 (≈ 389 µM) | 312 (≈ 779 µM) | 0.402 | > 200 | > 497 | half-life [7]: 1 h; Inhibition [9]: 90%; MIC (Salmonella paratyphi): 9.77 µg/mL (≈ 24.3 µM); MIC (Salmonella typhi): 156 µg/mL (≈ 389 µM); MIC (Citrobacter freundii): 1250 µg/mL (≈ 3110 µM); MIC (Salmonella typhimurium): 1250 µg/mL (≈ 3110 µM); MIC (Enterobacter): 312 µg/mL (≈ 779 µM); MIC (Morganella morganii): 156 µg/mL (≈ 389 µM); MIC (Vibrio parahaemolyticus): 1250 µg/mL (≈ 3110 µM) |
| Cc1cn(C2C=CC(COC(=O)CN3CCN(c4cc5c(cc4F)c(=O)c(C(=O)O)cn5C4CC4)CC3)O2)c(=O)[nH]c1=O (stereo unspecified) | 0.61 (≈ 1.02 µM) | 1.22 (≈ 2.05 µM) | 4.88 (≈ 8.19 µM) | 0.3 (≈ 0.504 µM) | 4.88 (≈ 8.19 µM) | 0.61 (≈ 1.02 µM) | 1.22 (≈ 2.05 µM) | 0.3 (≈ 0.504 µM) | 0.61 (≈ 1.02 µM) | 1.22 (≈ 2.05 µM) | 0.3 (≈ 0.504 µM) | 4.88 (≈ 8.19 µM) | 0.61 (≈ 1.02 µM) | 4.88 (≈ 8.19 µM) | 0.3 (≈ 0.504 µM) | 0.3 (≈ 0.504 µM) | 0.61 (≈ 1.02 µM) | 61.8 | 695 | 11.2 | half-life [7]: 4 h; Inhibition [9]: 100%; MIC (Citrobacter freundii): 0.61 µg/mL (≈ 1.02 µM); MIC (Salmonella typhimurium): 0.3 µg/mL (≈ 0.504 µM); MIC (Enterobacter): 0.3 µg/mL (≈ 0.504 µM); MIC (Morganella morganii): 0.61 µg/mL (≈ 1.02 µM); MIC (Vibrio parahaemolyticus): 0.3 µg/mL (≈ 0.504 µM) |
